# Results reported in patent publication US5834492A, “Water soluble orally effective iron chelator” (Jacobus Pharmaceutical Co., priority 1997, dated 1998).
# “And” between values parts separate entries of the source, which are not always exact repeats. Identical values can stand only once. “Also recorded” adds a separate entry of the source. Counter-ions that a name gives are not always drawn. Like-named read-outs stand apart in the source and are kept apart here.
# What was measured:
# [1] = cited from earlier work
# [2] = continuous infusion in solution; rats; cited from earlier work
# [3] = cited from earlier work; remark: listed apart in the source
# [4] = below pH 3; chromatographic investigations; cited from earlier work
# [5] = Human studies of oral PIH: iron excretion, toxicity, palatability; type: in vivo; details: in the mouth
# Text: There has, heretofore been no convenient, safe and effective orally administered chelator that has been developed for clinical use.
# [6] = Solubility in ethanol or acetonitrile; type: physicochemical
# Protocol: PIH has very limited solubility in water and ethanol, and in fact, to solubilize 28.6 grams of PIH would require 30,000 cc of absolute ethanol. Nevertheless, the aforesaid molar concentrations were used to produce a suspension to which was added the ethereal HCI solution.
# As a result of applicant's work, this procedure raises even more questions of operability than the immediately preceding one, since the acetonitrile solubility of the precipitate obtained after treatment of an authentic sample of PIH with ethereal HCI, is virtually nil. Specifically, attempts to solubilize the product succeeded in dissolving only 40 ma of material per 500 cc of hot acetonitrile--a ratio of 1 gram per 12.5 liters of acetonitrile (a ratio of […]) and no precipitate was obtained after addition of dry ether--even upon cooling the solution. Applicants were unable to liberate any product from the recrystallization system disclosed in U.S. 2,810,725.
# This cannot be accomplished since the solubility of PIH in ethanol is approximately 1 mg/mL and would require a volume of 30,000 cc for dissolution as described and not 500 cc.
# There was utilized a suspension of 57.2 mg/cc (1.43 g, 5 mMol in 25 cc absolute ethanol) to which were added two equivalents (10 mmoles) of 4 N ethereal HCI (2.5 cc) and stirred for one hour. The light yellow starting material became a copious off-white suspension. This was filtered and dried to give 1.68 g of a solid with melting point 250°-252°C. (dec) with discoloration beginning at 240° C. An authentic sample of PIH dihydrochloride, synthesized according to Example 1 supra, melts at 255°-257° C.
# [7] = Water / aqueous solubility at 25 °C; type: physicochemical
# [8] = noted by Sah 1953; cited from earlier work
# [9] = Biliary iron excretion in iron-overloaded rats after gavage, bile duct cannulated; type: in vivo, Male Sprague-Dawley rats; details: gavage 100 mg/kg, versus PIH equivalent dosage
# Protocol: Measurement of the bioefficiency of iron chelators have been carried out in rats using the methods of Brittenham supra and Park et al,(C. Park, B. R. Bacon, G. M. Brittenham and N. Tas. Lab Invest. 57:555-63 (1987).
# Male Sprague-Dawley rats weighing approximately 200 g were housed in cages and randomly assigned to three groups containing at least 6 animals. The groups received (i) one ml of saline alone administered by gavage (ii) 1 mL saline with PIH as the free base, 100 mg/kg body weight, added just prior to administration by gavage and (iii) 1 mL saline with PIHDH, 100 mg/kg body weight, added just prior to administration by gavage. The doses of chelators tested are chosen to provide direct comparisons with previous assay data. Animals receiving the chelators or saline by gavage receive doses 45 minutes prior to surgery. Animals are placed under anesthesia and the bile duct cannulated to permit continuous collection of bile during the assay time period. The bile is collected at half-hour intervals for 5 or 6 hours and the iron content determined spectrophotometrically, using bathophen-anthroline sulfonate for color development as published by Pippard et al, (M. J. Pippard, D. K. Johnson and C. A. Finch. Blood. 58:685-92 (1981)). […]
# [10] = Stability of the solid to light and anhydrous heat; type: physicochemical
# [11] = Stability/degradation in aqueous medium of given pH; type: physicochemical; details: for degraded at 3 h: aqueous medium, read-out: degradation after three hours
# [12] = Iron complexation (chelation); details: aqueous solutions in vitro and in vivo
# [13] = Total daily iron excretion in iron overloaded patients (enteric granules or glycine-buffered capsules); details: patients with iron overload
# Protocol: Five human subjects were administered PIHDH (PIH(HCI)2) as either enteric coated granules at 546 mg three times daily representing the lowest dose tested at 20 mg/kg per day.
# [14] = water, 25 °C (FIG. 16), read-out: water solubility
structure (smiles),measurement,setting,value
"Cc1ncc(CO)c(/C=N/NC(=O)c2ccncc2)c1O [PIH, 3-hydroxy-5-hydroxy-methyl-2-methyl-4-pyridinylcarboxaldehyde 4' pyridinecarboxylic acid hydrazone]",iron excretion compared with subcutaneously injected desferrioxamine,"[1]; oral PIH at three times the molar rates, preliminary human studies",less than half of that expected with subcutaneously injected desferrioxamine
same,toxicity at doses needed for sufficient iron excretion,"[1]; oral capsule, >60 mg/kg, people",toxicity characterized by elevated hepatic enzymes
same,oral dose needed to elicit sufficient iron excretion,"[1]; oral capsule, people",> 60 mg/kg
same,oral efficacy / iron removal in humans,"[1]; oral, humans",poor oral efficacy; also recorded: inadequate levels of iron are removed in humans
same,palatability,"[1]; oral, phase I clinical trials",highly unpalatable with a lingering unpleasant taste and oral sensation
same,iron excretion compared to desferrioxamine,[2],quantitatively similar iron excretion
same,absorption after oral administration,[3],not fully absorbed in vivo after oral administration
same,PIH crystals in feces,"[3]; treated animals/subjects, oral",presence of PIH crystals in the feces of treated animals; also recorded: crystals actually visible in feces of treated subjects
same,instability under acidic conditions,[4],dissolution below pH 3 can lead to decomposition
same,taste,[5],unpleasant taste
same,volume of absolute ethanol required to dissolve 28.6 g PIH,[6]; absolute ethanol,"30,000 cc and 30.000 cc"
same,solubility in ethanol,[6]; ethanol,approximately 1 mg/mL
same,water solubility,"[7]; water, 25 °C (FIG. 16)",0.14 mg/mL
same,solubility,[7]; [14],0.14 mg/mL
same,"water solubility, in words (literature)",[8],very low water solubility
"Cc1ncc(CO)c(C=NNC(=O)c2ccncc2)c1O [PIHDH, 3-hydroxy-5-(hydroxy-methyl)-2-methyl-4-pyridinecarboxaldehyde-4' pyridinecarboxylic acid hydrazone dihydrochloride]",total biliary iron excretion relative to PIH (percent),[9],250%
same,total biliary iron excretion relative to PIH (times greater),[9],2.5 times
same,stability of crystals,[10],stable to light and anhydrous heat
same,degraded at 3 h,"[11]; pH 1.29, 3 h",44.1%
same,degraded at 3 h,"[11]; pH 2.78, 3 h",17.7%
same,decomposition when buffered,[11]; buffered above 3.0 to 7.0,virtually little to virtually no decomposition
same,degradation after three hours,"[11]; pH 6.8, 3 h",no degradation
same,water solubility relative to PIH (times more water soluble),"[7]; PIHDH versus PIH base, dihydrochloride",450 times and > 450 times
same,solubility,[7]; [14],63 mg/mL
same,"water solubility, in words","[7]; water, dihydrochloride",better water solubility than the free base and its related hydrated species
same,ability to complex iron,[12],preserves its ability to complex iron in aqueous solutions in vitro and in vivo
same,absorption of enteric granules or buffered capsules,[13],adequately absorbed
Cc1ncc(CO)c(C=NNC(=O)c2ccncc2)c1O [Pyridoxal isonicotinoyl hydrazone isethionate],solubility,"[7]; 0.1 n hcl, read-out: solubility in 0.1N HCl",36 mg/mL
same,solubility,"[7]; water, read-out: water solubility",2.7 mg/mL
"Cc1ncc(CO)c(C=NNC(=O)c2ccncc2)c1O [hydrochloride-1.5 hydrate of PIH, 3-hydroxy-5-(hydroxymethyl) -2-methyl-4-pyridinecarboxaldehyde-4' pyridin ecar-boxylic acid hydrazone monohydrochloride trihemihydrate]",water solubility,"[7]; water, 25 °C (FIG. 16)",34 mg/mL
same,"water solubility, in words","[7]; water, listed as monohydrochloride 1.5 hydrate",slower solubilization
Cc1ncc(CO)c(C=NNC(=O)c2ccncc2)c1O [product],"solubility in acetonitrile, in words",[6]; acetonitrile,virtually nil
same,solubility of product in acetonitrile,[6]; acetonitrile,less than 0.1 mg/mL
same,amount of material dissolved per 500 cc hot acetonitrile,[6]; per 500 cc hot acetonitrile,40 ma
